Test results as given in patent US20050042714A1, “Glycoconjugates of sialic acid derivates, methods for their production and use thereof” (priority 2001, published 2005).

Columns and labels:
[1] = stability under physiological conditions; assay type: physicochemical; details: most likely hydrolysed to NeuAc in the cytoplasm
[2] = system: HL60-I cells; assay: uptake of peracetylated/esterified NeuAc: VVA and TML lectin staining by flow cytometry; assay type: cell-based, human; details: HL60-I cells, 0.03 to 1 mM (NeuAc 1 or 5 mM), 72 h, 0.5% DMSO
Experimental: Peracetylation of NeuAc only facilitates uptake if the carboxyl group is additionally esterified. Hyposialylated HL60-I cells were cultivated in the presence of indicated synthetic sialic acid analogue (stock solution 200 mM in DMSO) ranging from 0.03 to 1 mM or 0, 1 or 5 mM NeuA for 72 h with DMSO concentrations adjusted to 0.5%. Cells were stained with either directly fluorochrome-coupled lectin VVA, or biotin-coupled lectin (TML) and streptavidin-FITC for analysis by flow cytometry. Values given are relative factors of change of the mean fluorescence intensity of pretreated cells relative to untreated cells. The bars represent arithmetic means±SD (n=3). Molecular structures are given below the diagram.
Sugars are very hydrophilic and it has been shown that increasing the hydrophobicity by peracetylation of hydroxyl groups enables or facilitates uptake of disaccharides (Collins, B. E., Fralich, T. J., Itonori, S., Ichikawa, Y. and Schnaar, R. L. (2000) Glycobiology, 10, 11-20; Sarkar, A. K., Fritz, T. A., Taylor, W. H. and Esko, J. D. (1995) Proc Natl Acad Sci USA, 92, 3323-7; Sarkar, A. K., Rostand, K. S., Jain, R. K., Matta, K. L. and Esko, J. D. (1997) J Biol Chem, 272, 25608-16). For ManNAc derivatives it has been shown that peracetylation reduces required medium concentrations (Collins et al., 2000). The acetyl groups are cleaved-off intracellularly by cellular esterases (Collins et al., 2000; Sarkar et al., 1995; Sarkar et al., 1997) and the derivatives are then processed as known for the non-acetylated sugars. In order to address the question whether peracetylation also facilitates uptake of N-acetylneuraminic acid, HL60-I cells were cultivated in the presence of peracetylated NeuAc at concentrations ranging from 0.03 mM to 1 mM for 3 days. Changes in cell surface sialylation were measured by flow cytometry using Vicia Villosa agglutinin (VVA) and Tritrichomonas mobilensis lectin (TML). […] This represents a reduction in concentration by more than 16-fold and is in a similar range as reported for peracetylated ManNAc and ManNAc (Collins et al., 2000).
(§1) Lyophilized FITC-conjugated lectins Vicia villosa (VVA) was obtained from Sigma, dissolved in H2O (1 mg/ml), aliquoted and stored at −20° C. according to the manufacturer's instructions. FITC-conjugated Limax flavus agglutinin (LFA) was from EY Laboratories (San Manteo, Calif., USA) and biotin-coupled Tritrichomonas mobilensis agglutinin (TLM) from Calbiochem. Lectin staining procedure and fluorescence-activated cell scanning on a Becton Dickinson FACScan cytometer using Cellquest II software were carried out as described (Keppler, O. T., Molden-hauer, G., Oppenländer, M., Schwartz-Albiez, R., Berger, E. G., Funderud, S., and Pawlita, M. (1992) Eur J Immunol 22(11), 2777-81). Briefly, cells (3×10^5) were washed twice in cold PBS and then incubated in 100 μl PBS/0.05% NaN3, containing either fluorochrome-conjugated lectins VVA (50 μg/ml), LFA (20 μg/ml), or biotinylated TLM (20 μg/ml) for 45 min on ice in the dark. For biotinylated TLM a secondary incubation step with steptavidin-FITC (20 μg/ml) (Sigma) for 30 min on ice in the dark is required. After washing with PBS, cells were resuspended in 300 μl PBS and analyzed by flow cytometry.

[3] = system: HL60-I cells; assay: metabolic complementation assay: lectin staining (VVA, LFA, TLM) of analogue-treated cells by flow cytometry; assay type: cell-based, human; details: 5 mM, 24 h; for effect on VVA binding: decrease = masking of GalNAc by sialic acid
Experimental: Medium supplementation with some synthetic sialic acid analogues restores cell surface sialylation in hyposialylated HL60-I cells. Cells were cultivated in the presence of indicated synthetic sialic acid analogue (5 mM) for 24 h and stained with either directly fluorochrome-coupled lectins (VVA, LFA) or biotin-coupled lectin (TLM) and streptavidin-FITC and analyzed by flow cytometry. Values are given as “relative factor of change” (RFC) of the “mean fluorescence intensity” (MFI) of sialic acid-treated cells relative to untreated cells. The bars represent arithmetic means±SD (n^34) of one (x) or ≧two experiments.
To test whether cells can incorporate synthetic sialic acid analogues from the culture medium, a metabolic complementation assay was performed on endogenously hyposialylated, UDP-GlcNAc-2-epimerase-deficient HL60-I cells.
Cells were cultivated for 24 h in the presence of one of 16 different synthetic sialic acid analogues, carrying distinct C5 or C9 modifications (FIG. 1), and subsequently, changes in cell surface sialylation were assessed by flow cytometry using three fluorochrome-conjugated sialic acid-sensitive lectins. Vicia villosa agglutinin (VVA) detects GalNAc residues, and its binding sites can be masked by the addition of terminal sialic acid residues.
In sugar supplementation assays, cells seeded at 5×10^5 cells/ml in culture medium buffered with 40 mM HEPES (pH 7.2) were cultivated for 24 h in the presence or absence of 5 mM sialic acids (stocks of 100 mM dissolved in H2O, stored at 4° C.).
as §1

[4] = system: CD75s in BJA-B K20 cells; assay: de novo expression of sialoglycan CD75s by indirect immunofluorescence (antibody HH2); assay type: cell-based, human; details: serum-free, 5 mM, 0-6 h
Experimental: Kinetics of 9-iodo-NeuAc-induced expression of sialoglycan CD75s in BJA-B K20 cells in comparison with its precursor 6-iodo-ManNAc. Cells were cultivated under serum-free conditions for at least 7 d and then either ManNAc, 6-iodo-ManNAc, 9-iodo-NeuAc or NeuAc (each 5 mM) was added. The de novo expression of CD75s was monitored at the indicated time points by indirect immunofluorescence using fixed and permeabilized cells. Representative confocal pictures of two independent experiments are shown.
The superiority of biosynthetic incorporation of sialic acid variants by NeuAc derivatives over derivatized ManNAc precurors was shown by directly comparing 9-iodo-NeuAc and the corresponding 6-iodo-ManNAc. K20 cells cultivated under serum-free conditions were incubated for 0-6 h with either 9-iodo-NeuAc or 6-iodo-ManNAc prior to analysis of CD75s expression. CD75s is an α-2,6 sialylated cell surface antigen of mature B-lymphocytes which is not detectable with the monoclonal antibody HH2 in K20 cells cultured in the absence of serum. […] We conclude that presentation of C9-modified sialic acids on the cell surface is only possible by medium supplementation with sialic acid analogues, but not with ManNAc analogues. […]

[5] = system: BJA-B K20 cells; assay: HPLC of membrane-associated sialic acids from analogue-treated cells; assay type: cell-based, human; details: serum-free, 5 mM, 48 h
Experimental: Sialic acid analogues are incorporated in cell surface glycoconjugates. HPLC chromatograms of DMB-derivatised sialic acids hydrolysed from glycoproteins of sialic acid analogue-treated BJA-B K20 cells. (A) standards, (B) untreated cells, (C) cells cultivated in 5-N-fluoroacNeu, (D) cells cultivated in 9-iodo-NeuAc. Peaks were identified as follows: NeuGc (internal standard), NeuAc, 5-N-fluoroac-Neu, 9-iodo-NeuAc, Na-pyruvate (internal standard). Internal standards were added to each sample.
To confirm that synthetic sialic acid analogues supplementing the medium were taken up and metabolically incorporated as analogues into surface sialoglyco-conjugates the membrane-associated sialic acid fraction was analyzed by High Performance Liquid Chromatography (HPLC). […]
To confirm that the modifications are still present after incorporation into glycoconjugates sialic acids were cleaved off cell surfaces and analyzed by HPLC. […] Sialic acids derivation was performed according to a method as given below and samples were analyzed on a reversed-phase C18 column as described (Keppler, O. T., Stehling, P., Herrmann, M., Kayser, H., Grunow, D., Reutter, W., and Pawlita, M. (1995) J Biol Chem 270(3), 1308-14).

COC(=O)C1(O)C[C@H](O)[C@@H](NC(C)=O)[C@H]([C@H](O)[C@H](O)CO)O1 (stereo partly drawn) [analogue o, methyl N-acetyl neuraminate]
stability under physiological conditions [1]: unstable under physiological conditions | effect on cell surface sialylation (VVA and TML binding) [2]: did not affect uptake | effect on LFA binding [3]: increased binding of LFA | effect on TLM binding [3]: increased binding | effect on VVA binding [3]: significantly decreased VVA-binding | effect on LFA binding ([3]; listed as NeuAc-Me-Ester): very similar to those of NeuAc | effect on TLM binding ([3]; listed as NeuAc-Me-Ester): very similar to those of NeuAc

CC(=O)N[C@@H]1C(O)O[C@H](CI)[C@@H](O)[C@@H]1O (stereo partly drawn) [6-iodo-ManNAc, reference compound]
effect on CD75s expression within 6 h [4]: did not show any effect

CC(=O)N[C@H]1[C@H]([C@H](O)[C@H](O)CI)OC(O)(C(=O)O)C[C@@H]1O (stereo partly drawn) [analogue f, 5-N-acetyl-9-deoxy-9-iodo-neuraminic acid]
share of membrane-associated sialic acids consisting of the analogue [5]: 86.1% | time to strong intracellular CD75s signal [4]: ≤ 1 h | effect on LFA binding [3]: increased binding of LFA | effect on TLM binding [3]: increased binding | increase of LFA binding (relative factor of change of mean fluorescence intensity vs untreated cells) [3]: 19.2 fold | increase of TLM binding (relative factor of change of mean fluorescence intensity vs untreated cells) [3]: 6.4 fold | effect on VVA binding [3]: significantly decreased VVA-binding
